From patent US6743445B2, “Low temperature coatings” (BTG International Limited, priority 1998, dated 2004)
Structures can show the parent of a compound that is named as a salt.

Columns and labels:
[1] = Influence of plasticiser type on the MFFT of Aquacoat dispersion; type: physicochemical; details: plasticiser added as emulsion
Method: (§1) Two different methods were used to evaluate the influence of plasticiser type, quantity and incorporation technique on the MFFT on Surelease® EA7100 and Aquacoat® ECD30. The minimum film-forming temperature (MFFT) is the lowest temperature at which the film-forming composition solidifies to form a film.
(§2) The first was by pouring the dispersions onto glass petri dishes. These dispersions were dried at ambient temperature (15-25° C.) in Class 2 cleanroom environment and inspected visually. They referred to the plasticisation level needed to form films at 20±5° C. The same numerical grading system was used to evaluate the mixed films of examples 2 to 4.
(§3) The second method determined the specific MFFT for each formulation. A MFFT bar was used. The hot water bath on one end of the MFFT bar was set at 46±1° C. and the cold water bath on the other end was set at 3±1° C. This created a temperature gradient of 32.5±1.0° C. to 12±1.0° C. across the spreading surface. The temperature gradient across the MFFT bar was allowed to equilibrate for at least two hours prior to use. The temperatures were measured at the beginning and at the end of each experiment using a Jenway 3070 digital-display thermometer. The apparatus was levelled using the adjustable support and a spirit level. The plasticised dispersion formulations were spread across the surface. Once spread, the film was allowed to form at room humidity. After the film had dried, the lowest temperature on the bar at which the film was still continuous was taken as the MFFT. If the film became discontinuous in between two temperature sampling points then the higher of the two sampled temperatures was taken to be the MFFT. All experiments were duplicated. The reported MFFT was an average of the four temperatures taken at the beginning and at the end of each duplicate experiment.
(§4) In the third technique, the required amount of plasticiser, Tween 80™ and the pseudolatex were mixed with a high speed Silverson homogeniser mixer for 3 minutes. The additional plasticiser content of compositions comprising Surelease® has between 0 and 12% by weight of the ethyl cellulose solids. For compositions comprising Aquacoat®, plasticiser contents of between 18 and 30% by weight of the ethyl cellulose solids were investigated. In all cases Tween 80™ was present in an amount of 0.01% by weight of the dispersion. The formulations were left overnight in sealed containers. Any formulations that remained foamy after overnight storage were not investigated further. Otherwise, the formulations were evaluated on the MFFT apparatus. The plasticisers used were dibutyl sebacate, triethyl citrate, triacetin, acetyl tributyl citrate, tributyl citrate, polypropylene glycol, glycerol and polyethylene glycol 400.
In the final technique, Tween 80, the plasticiser and water were premixed into a crude emulsion prior to addition to ethyl cellulose coating dispersions. A plasticiser emulsion was formed by mixing parts of plasticiser and water with 0.1% of Tween 80™ using a Silverson homogeniser mixer. The freshly mixed plasticiser emulsion was then added to the ethyl cellulose coating dispersion by magnetic stirring for 30 minutes. […] Only Aquacoat® ECD30 formulations were investigated. Aquacoat® ECD30 was plasticised with dibutyl sebacate, triethyl citrate, triacetin, acetyl tributyl citrate, tributyl citrate, polypropylene glycol, glycerol and polyethylene glycol 400. The basic formulations comprise between 18 and 36% of plasticiser by weight of solids in the dispersion and 0.1% w/w Tween 80.

[2] = Influence of plasticiser type on the MFFT of Surelease dispersion; type: physicochemical; details: plasticiser added by high-shear mixing
Method: as §1, §2, §3, §4

| Compound | Lowering of the MFFT of Aquacoat® [1] | Lowering of the MFFT of Surelease® [2] |
| --- | --- | --- |
| CC(=O)OCC(COC(C)=O)OC(C)=O [triacetin] | lowering the MFFT |  |
| OCC(O)CO [glycerol] | unsuccessful | unsuccessful |
| CCCCOC(=O)CC(CC(=O)OCCCC)(OC(C)=O)C(=O)OCCCC [acetyl tributyl citrate] | successful in lowering the MFFT | successful in lowering the MFFT |
| CCCCOC(=O)CC(O)(CC(=O)OCCCC)C(=O)OCCCC [tributyl citrate] | successful in lowering the MFFT | successful in lowering the MFFT |
| CCOC(=O)CC(O)(CC(=O)OCC)C(=O)OCC [triethyl citrate] | lowering the MFFT |  |
| CCCCOC(=O)CCCCCCCCC(=O)OCCCC [dibutyl sebacate] | successful in lowering the MFFT | successful in lowering the MFFT |
